# Tests used:
# [1] = blood-brain barrier permeability by contrast-enhanced T1-weighted MRI; assay type: in vivo, rat; conditions: given as 300 mg/kg NAC plus 300 mg/kg HPN-07 i.p., MRI seven days after initial drug administration
# Method: Male Long-Evans pigmented rats (with body weights between 360 and 400 g, Harlan Laboratories, Indianapolis, Ind.) were injected intraperitoneally with a combination of 300 mg/kg of NAC plus 300 mg/kg of HPN-07, which were both dissolved in 5 ml/kg of physiological saline solution. […] Drug or saline was administered once on the first day and then twice a day for the following two days.
# Seven days after the initial drug administration magnetic resonance imaging (MRI) was used to detect the disruption of the blood-brain barrier (BBB). Contrast enhancement noted on post-contrast T1-weighted MRI after injection of contrast agent (Magnevist=GdDTPA) is indicative of blood-brain barrier disruption. The hyper intensity on the T1-weighted images is resulting from leakage of the gadolinium based contrast agent injected at the baseline.
# The MRI parameters and image scale factor were kept constant for all T1-weighted images. The images were evaluated both visually and by region-of-interest (ROI) measurement. ROT measurements were obtained at the time-points (before and after injection of contrast material on T1-weighted images) brain.
# doublecortin = doublecortin immunostaining of hippocampus and entorhinal cortex after noise exposure; assay type: in vivo, chinchilla; conditions: for level of doublecortin staining in the entorhinal cortex: HPN-07 300 mg/kg i.p.
# Method: In this Example, three-5 year old chinchilla were freedom divided into 3 groups (6 chinchilla at each time point in each group). Chinchilla in noise exposure and noise plus treatment groups were exposed to 105 dB SPL Octave band noise centered at 4 kHz for 6 hours. Chinchilla in the noise plus treatment group were received HPN-07 treatment (300 mg/kg, i.p) started 4 hours after noise exposure, and then twice a day for the following 2 days. Chinchilla in the normal control and the noise exposed only groups were received carrier solutions (i.p.). Chinchilla were euthanized and perfused with 4% paraformaldehyde in PBS 21 days and 6 months after noise exposure. Brains were dissected out and post-fixed in the fixative for one week. The brains were Cryosected at 30 μm. Goat anti-doublecortin (1:100) was used to label neural precursor cells. Images were taken from CA1 regions of hippocampus and the entorhinal cortex with a light microscope. Doublecortin staining reflects neurogenerosis in the brain after neuron damage and death after noise exposure.
# [2] = stated as known; cited from earlier work
Molecule,blood-brain barrier permeability (% change in ROI signal intensity after Magnevist) [1],"blood-brain barrier permeability (% change in ROI signal intensity after Magnevist) ([1]; listed as 2,4-disulfonyl PBN)",level of doublecortin staining in the entorhinal cortex (doublecortin; 6 months post noise exposure),"density of doublecortin staining in the hippocampus (doublecortin; 6 months post noise exposure, HPN-07 300 mg/kg i.p. from 4 hours after noise)",level of doublecortin staining in the entorhinal cortex (doublecortin; 21 days post noise exposure),blood-brain barrier permeability [2]
"2,4-disulfonyl α-phenyl tertiary butyl nitrone [HPN-07]",effectively increases blood-brain barrier permeability,unexpectedly increases blood brain permeability,decreases the level of doubtecortin staining,comparable to the control subjects,decreases the level of doubtecortin staining,
"CC(=O)N[C@@H](CS)C(=O)O [NAC, N-acetylcysteine]",,,,,,known to not increase blood-brain barrier permeability

# Reference: US10111843B2, “Methods for treating brain injury” (HOUGH EAR INSTITUTE, priority 2011, dated 2018)
